Columns and labels:
[1] = Physicochemical stability and hygroscopicity of the salts on storage; conditions: for physicochemical stability (in words): storage or formulation, room and enhanced temperature, high humidity, aqueous media
Description: Compound I is also disclosed in WO2004000840. On the other hand, compound I is exemplified as hydrochloride salt in WO2003053966 as an intermediate in the synthesis of other compounds. […] Upon storage or formulation of said known salt, progressive decomposition and concomitantly an increase in the amount and number of impurities was observed. Obviously, this problem is further aggravated under demanding environmental conditions such as light, heat, humidity or acidity.
It has been particularly difficult to find stable, crystalline forms of (R)-3-fluorophenyl-3,4,5-trifluorobenzylcarbamic acid 1-azabicyclo[2.2.2]oct-3-yl ester. […] Thus, there remains a need for a salt of (R)-3-fluorophenyl-3,4,5-trifluorobenzylcarbamic acid 1-azabicyclo[2.2.2]oct-3-yl ester that forms a crystalline solid that has a desirable morphology, be stable in the presence of water and under conditions of a high relative humidity (above 85%) and can readily be prepared on a large scale.

[2] = test system: patients suffering from Overactive Bladder syndrome; assay: Phase II clinical trial: pharmacodynamics in overactive bladder patients (urodynamic assessments, tolerability); conditions: 4 weeks
Experimental: A pharmacodynamic study of tarafenacin tartrate in patients suffering from Overactive Bladder syndrome was performed to obtain first efficacy and tolerability data in this population.
The study was randomised, double-blind, placebo and active-controlled. Patients received tarafenacin tartrate at the dose of 0.1 or 0.2 mg, tolterodine 4 mg or placebo o.d. during 4 weeks, just after a 2 week single-blind wash-out period in which all patients received placebo. Urodynamic assessments were performed at baseline and after 4 weeks administration.
It was planned to screen approximately 100 patients and randomize 77 patients, to obtain outcome data on 63 patients. Patients who entered the study were randomized into the four treatment groups during the double blind treatment period.
After a Screening visit and a 14 day washout single blind period (placebo run in), patients were randomized to one of the four treatment arms by a 2:2:2:1 randomization schedule. In a single blind period, only the patients were blinded. During the treatment period, each patient received tarafenacin tartrate 0.1 mg/tarafenacin tartrate 0.2 mg/tolterodine (ER) 4 mg/placebo. Identical capsules were used to maintain the study blind.
The end of study procedures were performed at the Day 28 visit (End of Treatment [EOT]). A study follow up was conducted at Day 35 either telephonically or the patient was called to the clinic (End of Study [EOS]).
The primary endpoint was the pharmacodynamic endpoints and they were assessed as the mean change from baseline to Day 28 in urodynamic, salivary flow, and accommodation near point pharmacodynamic assessments.

[3] = 0.1 mg o.d., change from baseline to Day 28

Compound: O=C(O)C(O)C(O)C(=O)O.O=C(O[C@H]1CN2CCC1CC2)N(Cc1cc(F)c(F)c(F)c1)c1cccc(F)c1 [D-tartrate salt, D-tartrate salt of (R)-3-fluorophenyl-3,4,5-trifluorobenzylcarbamic acid 1-azabicyclo[2.2.2]oct-3-yl ester]
- hygroscopicity (in words) [1]: relatively non-hygroscopic
- physicochemical stability (in words) [1]: more stable than the hydrochloride salt
- physicochemical stability (in words) ([1]; listed as Form I): stable at room temperature
- incidence of treatment emergent adverse events ([2]; 0.1 mg o.d.): 25%
- increase in infused volume [2, 3]: 73 mL
- increase in volume at first desire to void [2, 3]: 60 mL
- increase in volume at strong desire to void [2, 3]: 71 mL
- dose-response relationship (in words) ([2]; 0.1 mg versus 0.2 mg o.d.): no dose-response relationship
- incidence of treatment emergent adverse events ([2]; 0.2 mg o.d.): 33%
- tolerability (in words) ([2]; OAB patients): well tolerated
- pharmacological activity (in words) ([2]; OAB patients, listed as Tarafenacin tartrate): good pharmacological activity
- pharmacological activity (in words) ([2]; OAB patients, listed as tarafenacin tartrate): higher pharmacological activity

Source: patent publication US8871787B2, “Stable crystalline salt of (R)-3-fluorophenyl-3,4,5-trifluorobenzylcarbamic acid 1-azabicyclo [2.2.2]oct-3-yl ester” (Laboratorios Salvat, S.A., priority 2007, dated 2014)
